Test results as given in ChEMBL document CHEMBL1140238, “Synthesis of selective SRPK-1 inhibitors: novel tricyclic quinoxaline derivatives” (Bioorg Med Chem Lett, 2005).

Legend:
[1] = target: Mast/stem cell growth factor receptor Kit (Homo sapiens) (UniProt P10721); experiment: In vitro percent inhibition of v-kit Hardy-Zuckerman 4 feline sarcoma viral oncogene homolog at 10 uM concentration of compound dissolved in 100% DMSO using 5''-[gamma-33P]-triphosphate
[2] = target: Mitogen-activated protein kinase 8 (Homo sapiens) (UniProt P45983); experiment: In vitro percent inhibition of c-Jun N-terminal kinase 1-alpha 1 at 10 uM concentration of compound dissolved in 100% DMSO using 5''-[gamma-33P]-triphosphate
[3] = target: Hepatocyte growth factor receptor (Homo sapiens) (UniProt P08581); experiment: In vitro percent inhibition of Met proto-oncogene tyrosine kinase at 10 uM concentration of compound dissolved in 100% DMSO using 5''-[gamma-33P]-triphosphate
Hepatocyte growth factor receptor (Homo sapiens), sequence (P08581 whole entry): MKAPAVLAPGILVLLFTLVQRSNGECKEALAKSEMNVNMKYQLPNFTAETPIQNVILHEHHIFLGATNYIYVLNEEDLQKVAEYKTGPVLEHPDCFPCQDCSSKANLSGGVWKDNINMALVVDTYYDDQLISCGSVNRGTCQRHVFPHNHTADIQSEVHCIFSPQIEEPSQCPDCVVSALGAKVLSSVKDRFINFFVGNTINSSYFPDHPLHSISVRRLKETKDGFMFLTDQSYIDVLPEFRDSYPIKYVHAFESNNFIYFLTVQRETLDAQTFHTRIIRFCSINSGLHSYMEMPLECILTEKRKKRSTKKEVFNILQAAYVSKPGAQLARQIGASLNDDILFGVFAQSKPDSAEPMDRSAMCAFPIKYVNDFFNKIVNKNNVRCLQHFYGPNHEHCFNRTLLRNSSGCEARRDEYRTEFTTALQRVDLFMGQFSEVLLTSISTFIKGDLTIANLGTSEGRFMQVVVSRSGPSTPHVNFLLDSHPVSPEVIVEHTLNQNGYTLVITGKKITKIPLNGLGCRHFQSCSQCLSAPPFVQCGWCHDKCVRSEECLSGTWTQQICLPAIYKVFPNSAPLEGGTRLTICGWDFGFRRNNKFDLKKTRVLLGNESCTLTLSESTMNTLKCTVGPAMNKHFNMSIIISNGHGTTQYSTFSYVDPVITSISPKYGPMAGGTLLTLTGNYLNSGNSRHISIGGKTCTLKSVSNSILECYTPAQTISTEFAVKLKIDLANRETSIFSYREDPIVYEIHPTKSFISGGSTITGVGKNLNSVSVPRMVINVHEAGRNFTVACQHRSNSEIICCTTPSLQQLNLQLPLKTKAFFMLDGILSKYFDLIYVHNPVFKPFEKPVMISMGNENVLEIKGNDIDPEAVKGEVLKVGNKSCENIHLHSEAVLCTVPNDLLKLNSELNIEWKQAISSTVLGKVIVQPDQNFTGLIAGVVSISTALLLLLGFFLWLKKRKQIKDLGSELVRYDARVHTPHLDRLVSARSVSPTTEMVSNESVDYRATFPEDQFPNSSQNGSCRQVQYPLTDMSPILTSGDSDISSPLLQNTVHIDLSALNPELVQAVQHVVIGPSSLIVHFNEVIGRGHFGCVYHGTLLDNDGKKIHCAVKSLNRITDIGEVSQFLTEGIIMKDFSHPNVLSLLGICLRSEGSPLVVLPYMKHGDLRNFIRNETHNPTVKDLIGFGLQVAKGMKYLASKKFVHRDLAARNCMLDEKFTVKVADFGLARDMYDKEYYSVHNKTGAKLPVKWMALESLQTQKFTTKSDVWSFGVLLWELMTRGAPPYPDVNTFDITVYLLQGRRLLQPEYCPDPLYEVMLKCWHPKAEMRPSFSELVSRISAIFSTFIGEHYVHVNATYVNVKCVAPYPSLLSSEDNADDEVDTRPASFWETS

[4] = In vitro percent inhibition of Ribosomal S6 kinase 1 at 10 uM concentration of compound dissolved in 100% DMSO using 5''-[gamma-33P]-triphosphate
[5] = target: Tyrosine-protein kinase Lck (Homo sapiens) (UniProt P06239); experiment: In vitro percent inhibition of p56 Lck tyrosine kinase at 10 uM concentration of compound dissolved in 100% DMSO using 5''-[gamma-33P]-triphosphate
[6] = target: RAF proto-oncogene serine/threonine-protein kinase (Homo sapiens) (UniProt P04049); experiment: In vitro percent inhibition of RAF proto-oncogene serine/threonine-protein kinase at 10 uM concentration of compound dissolved in 100% DMSO using 5''-[gamma-33P]-triphosphate
[7] = target: Rho-associated protein kinase 2 (Homo sapiens) (UniProt O75116); experiment: In vitro percent inhibition of Protein kinase ROCK2 at 10 uM concentration of compound dissolved in 100% DMSO using 5''-[gamma-33P]-triphosphate
[8] = target: Casein kinase I isoform alpha (Homo sapiens) (UniProt P48729); experiment: In vitro percent inhibition of Casein kinase 1 alpha at 10 uM concentration of compound dissolved in 100% DMSO using 5''-[gamma-33P]-triphosphate
[9] = Partition coefficient (logP); type: physicochemical; conditions: octanol/water
[10] = target: T1, Inhibitor of nuclear factor kappa-B kinase subunit beta (Homo sapiens) (UniProt O14920); experiment: In vitro percent inhibition of I-kappa-B-kinase beta at 10 uM concentration of compound dissolved in 100% DMSO using 5''-[gamma-33P]-triphosphate
T1 sequence (whole entry): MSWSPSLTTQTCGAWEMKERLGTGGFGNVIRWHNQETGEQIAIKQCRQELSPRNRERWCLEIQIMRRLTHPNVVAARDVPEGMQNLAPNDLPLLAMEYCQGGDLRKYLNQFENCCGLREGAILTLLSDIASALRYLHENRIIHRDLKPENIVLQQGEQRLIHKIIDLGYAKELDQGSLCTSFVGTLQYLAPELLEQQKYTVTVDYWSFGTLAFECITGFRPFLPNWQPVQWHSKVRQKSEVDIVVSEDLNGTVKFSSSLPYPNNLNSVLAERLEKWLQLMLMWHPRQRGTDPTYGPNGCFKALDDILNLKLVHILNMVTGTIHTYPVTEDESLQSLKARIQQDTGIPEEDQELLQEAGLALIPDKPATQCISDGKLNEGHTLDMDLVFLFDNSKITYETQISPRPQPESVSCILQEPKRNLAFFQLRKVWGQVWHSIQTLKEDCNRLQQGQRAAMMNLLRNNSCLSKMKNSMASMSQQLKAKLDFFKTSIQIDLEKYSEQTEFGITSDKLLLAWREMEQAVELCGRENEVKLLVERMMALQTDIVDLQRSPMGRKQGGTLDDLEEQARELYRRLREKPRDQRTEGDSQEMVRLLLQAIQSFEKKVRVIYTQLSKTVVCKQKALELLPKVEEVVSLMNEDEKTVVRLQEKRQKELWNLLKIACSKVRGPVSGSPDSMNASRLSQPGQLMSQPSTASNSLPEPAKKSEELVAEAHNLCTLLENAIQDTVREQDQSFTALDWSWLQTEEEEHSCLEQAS

[11] = target: T2, Tyrosine-protein kinase transforming protein Abl (Abelson murine leukemia virus) (UniProt P00521); experiment: In vitro percent inhibition of v-Abl tyrosine kinase at 10 uM concentration of compound dissolved in 100% DMSO using 5''-[gamma-33P]-triphosphate
T2 sequence (whole entry): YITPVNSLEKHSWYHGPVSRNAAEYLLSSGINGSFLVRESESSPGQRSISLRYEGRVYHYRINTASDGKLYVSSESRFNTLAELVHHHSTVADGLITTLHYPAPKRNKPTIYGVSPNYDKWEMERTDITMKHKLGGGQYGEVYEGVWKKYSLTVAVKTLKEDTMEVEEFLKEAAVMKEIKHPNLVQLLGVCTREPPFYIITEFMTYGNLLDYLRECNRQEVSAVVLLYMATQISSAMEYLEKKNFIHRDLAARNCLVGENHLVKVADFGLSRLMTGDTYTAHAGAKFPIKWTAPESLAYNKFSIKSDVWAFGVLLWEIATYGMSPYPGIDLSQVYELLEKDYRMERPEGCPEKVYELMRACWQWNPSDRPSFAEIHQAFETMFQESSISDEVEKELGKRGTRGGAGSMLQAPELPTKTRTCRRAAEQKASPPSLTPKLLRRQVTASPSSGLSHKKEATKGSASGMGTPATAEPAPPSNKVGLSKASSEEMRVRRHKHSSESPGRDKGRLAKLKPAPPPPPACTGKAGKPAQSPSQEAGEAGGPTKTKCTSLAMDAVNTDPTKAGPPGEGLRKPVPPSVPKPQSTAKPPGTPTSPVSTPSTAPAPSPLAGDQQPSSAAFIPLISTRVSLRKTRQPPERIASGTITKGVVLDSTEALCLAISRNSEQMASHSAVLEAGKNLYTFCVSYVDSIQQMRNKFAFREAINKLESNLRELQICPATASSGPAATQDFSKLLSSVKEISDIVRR

[12] = In vitro percent inhibition of Cyclin-dependent kinase 2-cyclin A at 10 uM concentration of compound dissolved in 100% DMSO using 5''-[gamma-33P]-triphosphate
[13] = target: Ribosomal protein S6 kinase (P70S6K) (Homo sapiens) (UniProt Q9UBS0+P23443); experiment: In vitro percent inhibition of Ribosomal protein S6 kinase at 10 uM concentration of compound dissolved in 100% DMSO using 5''-[gamma-33P]-triphosphate; type: protein-complex assay
[14] = target: Glycogen synthase kinase-3 beta (Homo sapiens) (UniProt P49841); experiment: In vitro percent inhibition of Glycogen synthase kinase 3 beta at 10 uM concentration of compound dissolved in 100% DMSO using 5''-[gamma-33P]-triphosphate
Glycogen synthase kinase-3 beta (Homo sapiens), sequence (P49841 whole entry, looked up): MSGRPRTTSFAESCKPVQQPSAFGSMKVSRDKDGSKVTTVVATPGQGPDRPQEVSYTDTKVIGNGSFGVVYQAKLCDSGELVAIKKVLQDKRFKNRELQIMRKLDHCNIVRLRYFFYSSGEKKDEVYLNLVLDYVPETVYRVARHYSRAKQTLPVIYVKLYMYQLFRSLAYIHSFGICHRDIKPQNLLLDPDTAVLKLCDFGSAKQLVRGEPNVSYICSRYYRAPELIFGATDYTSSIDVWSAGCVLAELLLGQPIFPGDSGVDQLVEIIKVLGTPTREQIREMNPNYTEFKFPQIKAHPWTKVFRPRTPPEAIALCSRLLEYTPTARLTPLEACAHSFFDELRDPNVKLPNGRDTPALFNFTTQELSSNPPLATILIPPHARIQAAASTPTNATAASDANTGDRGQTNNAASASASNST

[15] = target: Platelet-derived growth factor receptor beta (Homo sapiens) (UniProt P09619); experiment: In vitro percent inhibition of Platelet-derived growth factor receptor, beta polypeptide at 10 uM concentration of compound dissolved in 100% DMSO using 5''-[gamma-33P]-triphosphate
[16] = target: RAC-alpha serine/threonine-protein kinase (Homo sapiens) (UniProt P31749); experiment: In vitro percent inhibition of Protein kinase B, alpha at 10 uM concentration of compound dissolved in 100% DMSO using 5''-[gamma-33P]-triphosphate
RAC-alpha serine/threonine-protein kinase (Homo sapiens), sequence (P31749 whole entry): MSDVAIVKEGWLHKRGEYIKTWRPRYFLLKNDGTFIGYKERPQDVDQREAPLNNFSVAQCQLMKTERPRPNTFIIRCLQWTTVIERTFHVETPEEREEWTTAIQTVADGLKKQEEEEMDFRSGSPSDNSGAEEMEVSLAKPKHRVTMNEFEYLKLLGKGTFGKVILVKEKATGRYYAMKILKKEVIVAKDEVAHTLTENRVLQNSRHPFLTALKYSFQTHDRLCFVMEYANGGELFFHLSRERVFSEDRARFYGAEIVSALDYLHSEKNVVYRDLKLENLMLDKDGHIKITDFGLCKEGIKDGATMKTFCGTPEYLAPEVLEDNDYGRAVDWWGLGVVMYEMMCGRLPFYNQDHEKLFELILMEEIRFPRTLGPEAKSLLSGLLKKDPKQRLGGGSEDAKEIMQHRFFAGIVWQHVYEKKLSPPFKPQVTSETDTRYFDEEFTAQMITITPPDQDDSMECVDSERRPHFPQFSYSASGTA

[17] = target: Epidermal growth factor receptor (Homo sapiens) (UniProt P00533); conditions: 10 uM
Epidermal growth factor receptor (Homo sapiens), sequence (P00533 whole entry): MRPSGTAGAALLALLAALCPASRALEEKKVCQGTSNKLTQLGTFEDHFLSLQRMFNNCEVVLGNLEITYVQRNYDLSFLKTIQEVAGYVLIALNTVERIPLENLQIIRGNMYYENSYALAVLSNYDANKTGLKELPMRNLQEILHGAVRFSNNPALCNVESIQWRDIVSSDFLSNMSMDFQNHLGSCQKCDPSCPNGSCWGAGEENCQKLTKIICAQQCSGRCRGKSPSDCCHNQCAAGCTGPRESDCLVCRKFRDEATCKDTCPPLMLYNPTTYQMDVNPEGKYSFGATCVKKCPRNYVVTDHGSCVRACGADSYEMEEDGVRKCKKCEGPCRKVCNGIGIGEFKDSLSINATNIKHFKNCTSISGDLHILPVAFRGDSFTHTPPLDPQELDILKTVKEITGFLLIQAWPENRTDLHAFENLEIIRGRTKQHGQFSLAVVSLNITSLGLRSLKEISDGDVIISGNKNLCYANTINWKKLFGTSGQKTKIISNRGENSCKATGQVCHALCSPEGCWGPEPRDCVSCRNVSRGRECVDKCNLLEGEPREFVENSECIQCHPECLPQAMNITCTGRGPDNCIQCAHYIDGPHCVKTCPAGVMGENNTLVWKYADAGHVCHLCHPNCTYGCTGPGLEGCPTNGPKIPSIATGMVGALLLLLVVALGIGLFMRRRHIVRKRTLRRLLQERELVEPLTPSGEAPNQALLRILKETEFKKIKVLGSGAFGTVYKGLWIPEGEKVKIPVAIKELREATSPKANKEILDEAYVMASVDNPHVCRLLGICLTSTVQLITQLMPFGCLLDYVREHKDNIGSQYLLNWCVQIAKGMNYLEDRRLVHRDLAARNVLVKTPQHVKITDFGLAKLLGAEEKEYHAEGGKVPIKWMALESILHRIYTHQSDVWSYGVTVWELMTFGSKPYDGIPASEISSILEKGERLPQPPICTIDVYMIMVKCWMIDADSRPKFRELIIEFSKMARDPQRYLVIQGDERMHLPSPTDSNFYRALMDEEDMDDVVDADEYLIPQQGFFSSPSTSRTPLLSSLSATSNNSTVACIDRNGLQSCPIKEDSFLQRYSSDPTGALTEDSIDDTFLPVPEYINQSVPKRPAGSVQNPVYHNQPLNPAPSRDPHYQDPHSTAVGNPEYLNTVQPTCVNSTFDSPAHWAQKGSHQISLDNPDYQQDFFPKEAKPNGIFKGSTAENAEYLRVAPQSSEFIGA

[18] = target: Mitogen-activated protein kinase 3 (Homo sapiens) (UniProt P27361); experiment: In vitro percent inhibition of Mitogen-activated protein kinase 3 at 10 uM concentration of compound dissolved in 100% DMSO using 5''-[gamma-33P]-triphosphate
Mitogen-activated protein kinase 3 (Homo sapiens), sequence (P27361 whole entry): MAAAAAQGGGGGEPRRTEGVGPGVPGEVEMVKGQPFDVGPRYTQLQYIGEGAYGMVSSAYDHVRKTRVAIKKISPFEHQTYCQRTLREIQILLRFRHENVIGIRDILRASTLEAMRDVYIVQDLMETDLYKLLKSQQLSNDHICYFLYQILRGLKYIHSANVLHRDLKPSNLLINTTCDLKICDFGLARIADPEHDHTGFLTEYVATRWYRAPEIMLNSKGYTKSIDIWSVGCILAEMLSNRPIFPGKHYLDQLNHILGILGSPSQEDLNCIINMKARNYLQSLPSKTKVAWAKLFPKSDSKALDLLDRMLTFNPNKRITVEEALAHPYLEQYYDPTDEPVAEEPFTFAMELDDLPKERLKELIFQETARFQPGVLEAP

[19] = target: Proto-oncogene tyrosine-protein kinase Src (Homo sapiens) (UniProt P12931); experiment: In vitro percent inhibition of c-Src tyrosine kinase at 10 uM concentration of compound dissolved in 100% DMSO using 5''-[gamma-33P]-triphosphate
[20] = target: Insulin receptor (Homo sapiens) (UniProt P06213); experiment: In vitro percent inhibition of Insulin receptor at 10 uM concentration of compound dissolved in 100% DMSO using 5''-[gamma-33P]-triphosphate

Mast/stem cell growth factor receptor Kit (Homo sapiens), sequence (P10721 whole entry): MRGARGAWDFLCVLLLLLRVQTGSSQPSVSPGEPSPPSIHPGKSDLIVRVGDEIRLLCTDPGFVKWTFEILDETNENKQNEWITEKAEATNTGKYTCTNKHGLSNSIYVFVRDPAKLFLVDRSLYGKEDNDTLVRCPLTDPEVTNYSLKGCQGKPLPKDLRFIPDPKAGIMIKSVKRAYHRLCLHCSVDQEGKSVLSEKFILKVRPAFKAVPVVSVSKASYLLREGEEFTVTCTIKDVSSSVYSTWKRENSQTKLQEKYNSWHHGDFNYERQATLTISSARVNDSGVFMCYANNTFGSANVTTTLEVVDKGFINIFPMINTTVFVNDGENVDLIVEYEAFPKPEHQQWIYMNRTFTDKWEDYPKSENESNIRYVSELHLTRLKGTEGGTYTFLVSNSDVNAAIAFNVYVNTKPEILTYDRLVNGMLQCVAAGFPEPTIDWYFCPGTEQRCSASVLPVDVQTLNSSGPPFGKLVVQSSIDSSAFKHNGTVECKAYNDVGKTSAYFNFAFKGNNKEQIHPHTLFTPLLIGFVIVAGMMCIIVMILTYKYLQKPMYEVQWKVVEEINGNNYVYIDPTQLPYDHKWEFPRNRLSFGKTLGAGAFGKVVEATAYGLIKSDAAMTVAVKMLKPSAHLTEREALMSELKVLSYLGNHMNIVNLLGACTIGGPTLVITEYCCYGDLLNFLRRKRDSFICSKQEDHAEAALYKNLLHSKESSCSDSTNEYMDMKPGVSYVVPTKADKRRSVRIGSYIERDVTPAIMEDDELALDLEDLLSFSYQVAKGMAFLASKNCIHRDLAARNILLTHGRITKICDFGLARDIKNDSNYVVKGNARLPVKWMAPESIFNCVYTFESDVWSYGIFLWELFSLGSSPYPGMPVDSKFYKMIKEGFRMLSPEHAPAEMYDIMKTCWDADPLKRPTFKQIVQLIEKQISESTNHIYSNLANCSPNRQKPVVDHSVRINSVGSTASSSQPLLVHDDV

Structure (SMILES)	inhibition [1]	inhibition [2]	inhibition [3]	inhibition [4]	inhibition [5]	inhibition [6]	inhibition [7]	inhibition [8]	logP [9]	inhibition [10]	inhibition [11]	inhibition [12]	inhibition [13]	inhibition [14]	inhibition [15]	inhibition [16]	inhibition [17]	inhibition [18]	inhibition [19]	inhibition [20]
COC(=O)CCc1ccc(-c2nc3cc4ccccc4cc3nc2-c2ccc(CCC(=O)OC)s2)s1	12%	-10%	39%	31%	5%	18%	5%	14%	5	31%	-8%	12%	11%	7%	13%	14%	32%	13%	19%	–
COC(=O)Cc1csc(-c2nc3cc4ccccc4cc3nc2-c2cc(CC(=O)OC)cs2)c1	1%	-10%	-2%	13%	4%	17%	4%	3%	5	14%	-10%	-4%	-5%	2%	9%	1%	11%	11%	8%	–
CCCC(=O)c1ccccc1 [BUTYROPHENONE]	–	–	–	–	–	–	–	–	2.73	–	–	–	–	–	–	–	–	–	–	–
Cn1c(=O)c2[nH]c(-c3ccccc3)nc2n(C)c1=O [8-PHENYL THEOPHYLLINE]	–	–	–	–	–	–	–	–	2.05	–	–	–	–	–	–	–	–	–	–	–
O=C(O)Cc1csc(-c2nc3cc4ccccc4cc3nc2-c2cc(CC(=O)O)cs2)c1	17%	–	21%	27%	8%	40%	18%	18%	4.11	37%	-7%	-5%	10%	22%	22%	17%	54%	54%	29%	–
c1ccc(-c2nnn[nH]2)cc1	–	–	–	–	–	–	–	–	1.42	–	–	–	–	–	–	–	–	–	–	–
CCCCC(=O)c1ccccc1 [VALEROPHENONE]	–	–	–	–	–	–	–	–	3.26	–	–	–	–	–	–	–	–	–	–	–
COC(=O)Cc1ccc(-c2nc3cc4ccccc4cc3nc2-c2ccc(CC(=O)OC)s2)s1	–	–	–	–	–	–	–	–	4.95	–	–	–	–	–	–	–	–	–	–	–
COc1cc2c(c(OC)c1OC)-c1ccc(OC)c(=O)cc1[C@@H](NC(C)=O)CC2 [COLCHICINE]	–	–	–	–	–	–	–	–	0.92	–	–	–	–	–	–	–	–	–	–	–
O=C(O)CCCc1ccc(-c2nc3cc4ccccc4cc3nc2-c2ccc(CCCC(=O)O)s2)s1	33%	–	7%	20%	9%	12%	0%	24%	4.77	43%	–	7%	18%	13%	37%	–	32%	6%	35%	–
COc1cc2nc3nc(-c4cccs4)c(-c4cccs4)nc3nc2cc1OC	-4%	–	12%	48%	-7%	8%	-1%	2%	4.79	10%	-1%	27%	-2%	4%	5%	-4%	20%	20%	9%	-7%
c1ccc2[nH]cnc2c1 [BENZIMIDAZOLE]	–	–	–	–	–	–	–	–	1.55	–	–	–	–	–	–	–	–	–	–	–
Cn1c(=O)c2[nH]cnc2n(C)c1=O [THEOPHYLLINE]	–	–	–	–	–	–	–	–	-0.05	–	–	–	–	–	–	–	–	–	–	–
O=C(O)c1ccc(-c2nc3cc4ccccc4cc3nc2-c2ccc(C(=O)O)s2)s1	12%	–	-4%	31%	–	16%	19%	7%	5.03	29%	–	3%	14%	51%	23%	12%	49%	49%	20%	–
O=C(O)C1COc2cc3nc(-c4cccs4)c(-c4cccs4)nc3cc2O1 (configuration not stated)	4%	–	-2%	14%	-2%	12%	-1%	15%	4.7	14%	-6%	10%	-1%	33%	5%	4%	39%	39%	19%	–
COc1cc2nc(-c3cccs3)c(-c3cccs3)nc2cc1OC	-6%	–	-3%	15%	9%	11%	2%	-1%	4	10%	-2%	-5%	-9%	–	7%	-6%	10%	10%	10%	-7%
CCC(=O)c1ccccc1 [PROPIOPHENONE]	–	–	–	–	–	–	–	–	2.2	–	–	–	–	–	–	–	–	–	–	–
